{
  "source": "patent US5071858A",
  "about": "“Antipsychotic benzothiopyranylamines” (Ciba-Geigy Corporation, priority 1990, dated 1991)",
  "key": {"[1]": {"target": "T1, serotonin-2 receptor (5HT-2 receptor) (Rattus norvegicus, UniProt P14842)", "T1 construct": "membrane preparations of frontal/parietal cortex from male Sprague-Dawley rats; from tissue; host or cells: frontal/parietal cortex membranes of male Sprague-Dawley rats", "T1 sequence (P14842 whole entry)": "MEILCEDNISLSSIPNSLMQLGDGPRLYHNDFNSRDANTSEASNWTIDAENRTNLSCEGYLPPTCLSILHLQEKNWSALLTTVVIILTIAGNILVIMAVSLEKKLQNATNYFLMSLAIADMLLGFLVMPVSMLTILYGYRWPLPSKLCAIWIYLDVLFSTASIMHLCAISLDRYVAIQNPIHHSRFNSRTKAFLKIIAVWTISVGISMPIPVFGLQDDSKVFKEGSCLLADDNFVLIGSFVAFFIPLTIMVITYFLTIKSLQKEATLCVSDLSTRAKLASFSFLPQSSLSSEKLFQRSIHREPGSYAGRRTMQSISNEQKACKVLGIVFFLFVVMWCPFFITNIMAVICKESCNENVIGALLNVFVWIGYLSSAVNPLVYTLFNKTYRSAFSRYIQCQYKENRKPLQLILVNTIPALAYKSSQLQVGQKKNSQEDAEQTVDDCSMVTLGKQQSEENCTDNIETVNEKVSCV", "assay": "serotonin-2 receptor binding assay (3H-ketanserin displacement)", "conditions": "frontal/parietal cortex membranes of male Sprague-Dawley rats", "description": "The compounds described above are active e.g. in the following test system indicative of serotonin-2 receptor antagonism: The serotonin-2 receptor (also named 5-hydroxytryptamine-2 or 5HT-2 receptor) binding properties are determined in vitro by measuring the ability of said compounds to inhibit the specific binding of ^3 H-ketanserin in membrane preparations of frontal/parietal cortex from male Sprague-Dawley rats essentially as described by\nBattaglia et al. in Life Sciences 33, 2011 (1983). IC50 values, representing the concentration of compound required to displace 50% of ^3 H-ketanserin, are determined by log-logit analysis of the specific binding data. Illustrative of the invention, the compound of example 1 is effective in the serotonin-2 receptor binding assay having an […] value of about 5 nM."}, "[2]": {"system": "Sidman avoidance responding", "assay": "Sidman avoidance model", "assay_type": "in vivo, squirrel monkey (Samiri sciureus)", "conditions": "squirrel monkeys", "description": "The test is carried out as follows: Adult male squirrel monkeys (Samiri sciureus, 700-1200 g) are trained to press a lever to delay by 20 sec. the delivery of a brief electrical footshock. If the animal fails to respond within a 20 sec. interval, brief (0.5 sec.) shocks (5 mA) are delivered every 20 sec. until the animal again presses the lever. The total number of avoidance responses and avoidance failures (shocks received) are recorded during the test session, which lasts 4 hours. The monkeys are tested two days per week, the first day serving as a baseline control. The test compound is administered orally in a cornstarch vehicle 10 min. prior to the start of the test session. […] An approximate dose ratio of three between avoidance blockade and induction of dyskinesias is found for the compound of example 1."}},
  "data": [
    {"smiles": "O=C(c1ccc(F)cc1)C1CCN(CC2CSc3ccc(F)cc3C2)CC1", "note": "(centres unmarked) [Example 1, 1-[(6-Fluoro-3,4-dihydro-2H-1-benzothiopyran-3-yl)methyl]-4-piperidinyl p-fluorophenyl ketone]", "values": [
      {"measurement": "EC50", "setting": "[1]", "result": "~5", "unit": "nM"},
      {"measurement": "dose ratio between avoidance blockade and induction of dyskinesias", "setting": "[2]", "result": "three"}
    ]}
  ]
}
